Measurements as given in publication PMC9268153 (2022).

Key:
[1] = tested on: Telomere G1 (Telomere G4) (DNA, G4) TAGGGTTAGGGTTAGGGTTAGGG; experiment: ITC; conditions: 50 mM potassium phosphate (K+), 50 mM KH2PO4-K2HPO4 pH 7.0, 25 °C; for binding: n.d. (not detected), titrant up to 100 μM
[2] = tested on: G1-r23nt (RNA, G4) UAGGGUUAGGGUUAGGGUUAGGG; experiment: CD melting; conditions: 5 mM KCl; 50 mM Tris-HCl pH 7.4; 4.5 μM compound, 1.5 μM nucleic acid
[3] = tested on: Telomere G1 (Telomere G4) (DNA, G4) TAGGGTTAGGGTTAGGGTTAGGG; experiment: UV-Vis titration, Scatchard; conditions: 100 mM KCl; 50 mM Tris-HCl pH 7.4, 25 °C
[4] = tested on: ds-oligo (DNA, duplex) GGGAGGTTTCGC/GCGAAACCTCCC; experiment: UV-Vis titration, Scatchard; conditions: 100 mM KCl; 50 mM Tris-HCl pH 7.4, 25 °C
[5] = tested on: G1-r12nt (RNA, G4) UAGGGUUAGGGU; experiment: CD melting; conditions: 100 mM KCl; 50 mM KH2PO4-K2HPO4 pH 7.0; 4.5 μM compound, 1.5 μM nucleic acid
[6] = tested on: c-myc AP sites (DNA, G4, abasic (d-spacer) at 7 and 16) TGAGGGNGGGGAGGGNGGGGAA; experiment: ITC; conditions: 50 mM potassium phosphate (K+); 50 mM KH2PO4-K2HPO4 pH 7.0, 25 °C
[7] = tested on: c-kit (DNA, G4) AGGGAGGGCGCTGGGAGGAGGG; experiment: CD spectral change; conditions: 100 mM KCl; 50 mM Tris-HCl pH 7.4, 25 °C; 1.5 μM DNA, up to 4.5 μM compound
[8] = tested on: Telomere G1 (Telomere G4) (DNA, G4) TAGGGTTAGGGTTAGGGTTAGGG; experiment: CD melting; conditions: 100 mM KCl; 50 mM Tris-HCl pH 7.4; 4.5 μM compound, 1.5 μM nucleic acid
[9] = tested on: ds-oligo (DNA, duplex) GGGAGGTTTCGC/GCGAAACCTCCC; experiment: ITC; conditions: 50 mM potassium phosphate (K+); 50 mM KH2PO4-K2HPO4 pH 7.0, 25 °C; undetectable
[10] = tested on: G1-r12nt (RNA, G4) UAGGGUUAGGGU; experiment: ITC; conditions: 50 mM potassium phosphate (K+); 50 mM KH2PO4-K2HPO4 pH 7.0, 25 °C
[11] = tested on: G1-r23nt (RNA, G4) UAGGGUUAGGGUUAGGGUUAGGG; experiment: ITC; conditions: 50 mM potassium phosphate (K+); 50 mM KH2PO4-K2HPO4 pH 7.0, 25 °C

SMILES	Ka [1]	ΔTm [2]	Ka [3]	Ka [4]	ΔTm [5]	Ka [6]	binding [7]	ΔTm [8]	binding [1]	binding [9]	binding [10]	Ka [11]
CN(C)CCCN1C(=O)c2ccc3c4c(ccc(c24)C1=O)C(=O)N(CCCN(C)C)C3=O	9.5 ± 0.6 × 10^5 M^-1	19.9 ± 0.1 °C	9.5 ± 0.9 × 10^5 M^-1	3.9 ± 0.1 × 10^5 M^-1	6.1 ± 0.4 °C	2.9 ± 0.2 × 10^5 M^-1	yes	5.1 ± 1.1 °C				
CN(CCCN1C(=O)c2ccc3c4c(ccc(c24)C1=O)C(=O)N(CCCN(C)C[C@H]1O[C@@H]2O[C@H]4[C@H](O)[C@@H](O)[C@@H](O[C@H]5[C@H](O)[C@@H](O)[C@@H](O[C@H]6[C@H](O)[C@@H](O)[C@@H](O[C@H]7[C@H](O)[C@@H](O)[C@@H](O[C@H]8[C@H](O)[C@@H](O)[C@@H](O[C@H]9[C@H](O)[C@@H](O)[C@@H](O[C@H]1[C@H](O)[C@H]2O)O[C@@H]9CO)O[C@@H]8CO)O[C@@H]7CO)O[C@@H]6CO)O[C@@H]5CO)O[C@@H]4CO)C3=O)C[C@H]1O[C@@H]2O[C@H]3[C@H](O)[C@@H](O)[C@@H](O[C@H]4[C@H](O)[C@@H](O)[C@@H](O[C@H]5[C@H](O)[C@@H](O)[C@@H](O[C@H]6[C@H](O)[C@@H](O)[C@@H](O[C@H]7[C@H](O)[C@@H](O)[C@@H](O[C@H]8[C@H](O)[C@@H](O)[C@@H](O[C@H]1[C@H](O)[C@H]2O)O[C@@H]8CO)O[C@@H]7CO)O[C@@H]6CO)O[C@@H]5CO)O[C@@H]4CO)O[C@@H]3CO		10.3 ± 0.3 °C			2.1 ± 0.9 °C	2.2 ± 0.3 × 10^5 M^-1		< 0.5 °C	no	no	yes	19.0 ± 2.2 × 10^5 M^-1
O=C(CN1C(=O)c2ccc3c4c(ccc(c24)C1=O)C(=O)N(CC(=O)NCCNC[C@H]1O[C@@H]2O[C@H]4[C@H](O)[C@@H](O)[C@@H](O[C@H]5[C@H](O)[C@@H](O)[C@@H](O[C@H]6[C@H](O)[C@@H](O)[C@@H](O[C@H]7[C@H](O)[C@@H](O)[C@@H](O[C@H]8[C@H](O)[C@@H](O)[C@@H](O[C@H]9[C@H](O)[C@@H](O)[C@@H](O[C@H]1[C@H](O)[C@H]2O)O[C@@H]9CO)O[C@@H]8CO)O[C@@H]7CO)O[C@@H]6CO)O[C@@H]5CO)O[C@@H]4CO)C3=O)NCCNC[C@H]1O[C@@H]2O[C@H]3[C@H](O)[C@@H](O)[C@@H](O[C@H]4[C@H](O)[C@@H](O)[C@@H](O[C@H]5[C@H](O)[C@@H](O)[C@@H](O[C@H]6[C@H](O)[C@@H](O)[C@@H](O[C@H]7[C@H](O)[C@@H](O)[C@@H](O[C@H]8[C@H](O)[C@@H](O)[C@@H](O[C@H]1[C@H](O)[C@H]2O)O[C@@H]8CO)O[C@@H]7CO)O[C@@H]6CO)O[C@@H]5CO)O[C@@H]4CO)O[C@@H]3CO		10.6 ± 0.6 °C			< 0.5 °C	2.0 ± 0.8 × 10^5 M^-1		< 0.5 °C	no	no	yes	12.3 ± 2.2 × 10^5 M^-1
